According to the supplement of paper PMC10307832:

How the values were obtained:
Assay in all cases: relative viability (nuclei count vs DMSO), 5 days (fraction); higher = more cells survive
NCI-H1648 = test system: NCI-H1648
In short: (§1)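 Cells from lung cancer lines were seeded into 1536-well plates and, one day later, dosed by pin tool. Treatments were either a single drug or a fixed dose of an anchor drug with five library-drug doses (not always all listed) in √10 steps. After 5 days, nuclei were stained in a one-step fixation (final 0.05% Triton X-100, 1% formaldehyde, 1 ug/ml Hoechst) and counted on 4× images, and relative viability is the treated-to-vehicle nuclei ratio, as the median of duplicate plates.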

A549 = test system: A549
In short: as §1

ChaGo-K-1 = test system: ChaGo-K-1
In short: as §1

Calu-6 = test system: Calu-6
In short: as §1

NCI-H1299 = test system: NCI-H1299
In short: as §1

EBC-1 = test system: EBC-1
In short: as §1

IA-LM = test system: IA-LM
In short: as §1

NCI-H1703 = test system: NCI-H1703
In short: as §1

CC(C)Oc1cc(Nc2nc(N[C@@H](C)c3ccc(F)cn3)ncc2Cl)n[nH]1 [AZ23] + O=C(c1cc(Cc2n[nH]c(=O)c3ccccc23)ccc1F)N1CCN(C(=O)C2CC2)CC1 [Olaparib] (partner 8 µM)
relative viability (NCI-H1648; first compound 0.01 µM): 0.6 | relative viability (NCI-H1648; first compound 0.03162 µM): 1.01 | relative viability (NCI-H1648; first compound 0.3162 µM): 0.697 | relative viability (A549; first compound 0.01 µM): 0.201 | relative viability (A549; first compound 0.03162 µM): 0.54 | relative viability (A549; first compound 0.3162 µM): 0.327 | relative viability (ChaGo-K-1; first compound 0.01 µM): 0.519 | relative viability (ChaGo-K-1; first compound 0.03162 µM): 0.407 | relative viability (ChaGo-K-1; first compound 0.3162 µM): 0.406 | relative viability (Calu-6; first compound 0.03162 µM): 0.662 | relative viability (Calu-6; first compound 0.3162 µM): 0.644 | relative viability (NCI-H1299; first compound 0.01 µM): 1.06 | relative viability (NCI-H1299; first compound 0.03162 µM): 0.984 | relative viability (NCI-H1299; first compound 0.3162 µM): 1.03 | relative viability (EBC-1; first compound 0.01 µM): 0.884 | relative viability (EBC-1; first compound 0.03162 µM): 0.767 | relative viability (EBC-1; first compound 0.3162 µM): 0.734 | relative viability (IA-LM; first compound 0.01 µM): 0.79 | relative viability (IA-LM; first compound 0.03162 µM): 0.914 | relative viability (IA-LM; first compound 0.3162 µM): 0.949 | relative viability (NCI-H1703; first compound 0.03162 µM): 0.411 | relative viability (NCI-H1703; first compound 0.3162 µM): 0.397

Clc1ccc(Nc2nnc(Cc3ccncc3)c3ccccc23)cc1 [Vatalanib] + C[C@@H](Oc1cc(-c2cnn(C3CCNCC3)c2)cnc1N)c1c(Cl)ccc(F)c1Cl [Crizotinib] (partner 1 µM)
relative viability (A549; first compound 0.04 µM): 0.857 | relative viability (A549; first compound 0.1265 µM): 0.843 | relative viability (A549; first compound 0.4 µM): 0.907 | relative viability (A549; first compound 1.265 µM): 0.597 | relative viability (A549; first compound 4 µM): 0.713 | relative viability (ChaGo-K-1; first compound 0.04 µM): 1.18 | relative viability (ChaGo-K-1; first compound 0.1265 µM): 1.14 | relative viability (ChaGo-K-1; first compound 1.265 µM): 1.1 | relative viability (ChaGo-K-1; first compound 4 µM): 1.09 | relative viability (Calu-6; first compound 0.04 µM): 0.756 | relative viability (Calu-6; first compound 0.1265 µM): 0.662 | relative viability (Calu-6; first compound 0.4 µM): 0.779 | relative viability (Calu-6; first compound 1.265 µM): 0.779 | relative viability (Calu-6; first compound 4 µM): 0.643 | relative viability (NCI-H1299; first compound 0.04 µM): 0.956 | relative viability (NCI-H1299; first compound 0.1265 µM): 0.96 | relative viability (NCI-H1299; first compound 0.4 µM): 0.957 | relative viability (NCI-H1299; first compound 1.265 µM): 0.964 | relative viability (NCI-H1299; first compound 4 µM): 0.965 | relative viability (EBC-1; first compound 0.04 µM): 0.218 | relative viability (EBC-1; first compound 0.1265 µM): 0.178 | relative viability (EBC-1; first compound 0.4 µM): 0.176 | relative viability (EBC-1; first compound 1.265 µM): 0.191 | relative viability (EBC-1; first compound 4 µM): 0.21 | relative viability (IA-LM; first compound 0.04 µM): 0.649 | relative viability (IA-LM; first compound 0.1265 µM): 0.875 | relative viability (IA-LM; first compound 0.4 µM): 0.724 | relative viability (IA-LM; first compound 1.265 µM): 0.743 | relative viability (IA-LM; first compound 4 µM): 0.721 | relative viability (NCI-H1703; first compound 0.04 µM): 0.669 | relative viability (NCI-H1703; first compound 0.1265 µM): 0.77 | relative viability (NCI-H1703; first compound 0.4 µM): 0.866 | relative viability (NCI-H1703; first compound 1.265 µM): 0.524 | relative viability (NCI-H1703; first compound 4 µM): 0.303

CC(C)Oc1cc(Nc2nc(N[C@@H](C)c3ccc(F)cn3)ncc2Cl)n[nH]1 [AZ23] + CS(=O)(=O)N1CCN(Cc2cc3nc(-c4cccc5[nH]ncc45)nc(N4CCOCC4)c3s2)CC1 [Pictilisib] (partner 1 µM)
relative viability (A549; first compound 0.01 µM): 0.586 | relative viability (A549; first compound 0.03162 µM): 0.676 | relative viability (A549; first compound 0.3162 µM): 0.416 | relative viability (ChaGo-K-1; first compound 0.01 µM): 0.658 | relative viability (ChaGo-K-1; first compound 0.03162 µM): 1.18 | relative viability (ChaGo-K-1; first compound 0.3162 µM): 0.661 | relative viability (Calu-6; first compound 0.01 µM): 0.883 | relative viability (Calu-6; first compound 0.03162 µM): 1.13 | relative viability (Calu-6; first compound 0.3162 µM): 0.986 | relative viability (NCI-H1299; first compound 0.03162 µM): 0.954 | relative viability (NCI-H1299; first compound 0.3162 µM): 1.13 | relative viability (EBC-1; first compound 0.01 µM): 0.312 | relative viability (EBC-1; first compound 0.03162 µM): 0.397 | relative viability (EBC-1; first compound 0.3162 µM): 0.345 | relative viability (IA-LM; first compound 0.01 µM): 0.403 | relative viability (IA-LM; first compound 0.03162 µM): 0.334 | relative viability (IA-LM; first compound 0.3162 µM): 0.419 | relative viability (NCI-H1703; first compound 0.03162 µM): 0.291 | relative viability (NCI-H1703; first compound 0.3162 µM): 0.218

C[C@@H]1CN(CC(=O)Nc2ccc3c(c2)Cc2cccc(-c4cc(=O)cc(N5CCOCC5)o4)c2S3)C[C@H](C)O1 + CS(=O)(=O)N1CCN(Cc2cc3nc(-c4cccc5[nH]ncc45)nc(N4CCOCC4)c3s2)CC1 [Pictilisib] (partner 1 µM)
relative viability (A549; first compound 0.04 µM): 0.524 | relative viability (A549; first compound 0.1265 µM): 0.594 | relative viability (A549; first compound 0.4 µM): 0.444 | relative viability (A549; first compound 4 µM): 0.323 | relative viability (ChaGo-K-1; first compound 0.1265 µM): 0.633 | relative viability (ChaGo-K-1; first compound 0.4 µM): 0.577 | relative viability (ChaGo-K-1; first compound 4 µM): 0.686 | relative viability (Calu-6; first compound 0.04 µM): 0.962 | relative viability (Calu-6; first compound 0.1265 µM): 0.97 | relative viability (Calu-6; first compound 0.4 µM): 0.925 | relative viability (Calu-6; first compound 4 µM): 0.8 | relative viability (NCI-H1299; first compound 0.04 µM): 0.898 | relative viability (NCI-H1299; first compound 0.1265 µM): 0.739 | relative viability (NCI-H1299; first compound 0.4 µM): 0.848 | relative viability (NCI-H1299; first compound 4 µM): 0.689 | relative viability (EBC-1; first compound 0.04 µM): 0.487 | relative viability (EBC-1; first compound 0.1265 µM): 0.412 | relative viability (EBC-1; first compound 0.4 µM): 0.244 | relative viability (EBC-1; first compound 4 µM): 0.266 | relative viability (IA-LM; first compound 0.04 µM): 0.3 | relative viability (IA-LM; first compound 0.1265 µM): 0.372 | relative viability (IA-LM; first compound 0.4 µM): 0.301 | relative viability (IA-LM; first compound 4 µM): 0.234 | relative viability (NCI-H1703; first compound 0.04 µM): 0.249 | relative viability (NCI-H1703; first compound 0.1265 µM): 0.243 | relative viability (NCI-H1703; first compound 0.4 µM): 0.238 | relative viability (NCI-H1703; first compound 4 µM): 0.205
